Columns and labels:
Assay in all cases: NCI-60 single-dose screen
Assay type in all cases: cell-based
SK-OV-3 = settings: Homo sapiens, single dose 10 µM, '-' = no inhibition, read-out: % Growth Inhibition
Summary of the method: (§1)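 Was run as a one-dose (10 μM) screen by the NCI Developmental Therapeutics Program, covering 60 tumour cell lines from nine cancer types including renal, melanoma and CNS.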

A498 = settings: Homo sapiens, single dose 10 µM, '-' = no inhibition, read-out: % Growth Inhibition
Summary of the method: as §1

SNB-75 = settings: Homo sapiens, single dose 10 µM, '-' = no inhibition, read-out: % Growth Inhibition
Summary of the method: as §1

SK-MEL-5 = settings: Homo sapiens, single dose 10 µM, '-' = no inhibition, read-out: % Growth Inhibition
Summary of the method: as §1

RPMI-8226 = settings: Homo sapiens, single dose 10 µM, '-' = no inhibition, read-out: % Growth Inhibition
Summary of the method: as §1

786-0 = settings: Homo sapiens, single dose 10 µM, '-' = no inhibition, read-out: % Growth Inhibition
Summary of the method: as §1

NCI-H522 = settings: Homo sapiens, single dose 10 µM, '-' = no inhibition, read-out: % Growth Inhibition
Summary of the method: as §1

MDA-MB-468 = settings: Homo sapiens, single dose 10 µM, '-' = no inhibition, read-out: % Growth Inhibition
Summary of the method: as §1

SK-MEL-28 = settings: Homo sapiens, single dose 10 µM, '-' = no inhibition, read-out: % Growth Inhibition
Summary of the method: as §1

HCT-116 = settings: Homo sapiens, single dose 10 µM, '-' = no inhibition, read-out: % Growth Inhibition
Summary of the method: as §1

MCF7 = settings: Homo sapiens, single dose 10 µM, '-' = no inhibition, read-out: % Growth Inhibition
Summary of the method: as §1

SW-620 = settings: Homo sapiens, single dose 10 µM, '-' = no inhibition, read-out: % Growth Inhibition
Summary of the method: as §1

SNB-19 = settings: Homo sapiens, single dose 10 µM, '-' = no inhibition, read-out: % Growth Inhibition
Summary of the method: as §1

SF-539 = settings: Homo sapiens, single dose 10 µM, '-' = no inhibition, read-out: % Growth Inhibition
Summary of the method: as §1

CAKI-1 = settings: Homo sapiens, single dose 10 µM, '-' = no inhibition, read-out: % Growth Inhibition
Summary of the method: as §1

M14 = settings: Homo sapiens, single dose 10 µM, '-' = no inhibition, read-out: % Growth Inhibition
Summary of the method: as §1

NCI-H460 = settings: Homo sapiens, single dose 10 µM, '-' = no inhibition, read-out: % Growth Inhibition
Summary of the method: as §1

MOLT-4 = settings: Homo sapiens, single dose 10 µM, '-' = no inhibition, read-out: % Growth Inhibition
Summary of the method: as §1

PC-3 = settings: Homo sapiens, single dose 10 µM, '-' = no inhibition, read-out: % Growth Inhibition
Summary of the method: as §1

T-47D = settings: Homo sapiens, T47D, single dose 10 µM, '-' = no inhibition, read-out: % Growth Inhibition
Summary of the method: as §1

HOP-92 = settings: Homo sapiens, single dose 10 µM, '-' = no inhibition, read-out: % Growth Inhibition
Summary of the method: as §1

KM12 = settings: Homo sapiens, single dose 10 µM, '-' = no inhibition, read-out: % Growth Inhibition
Summary of the method: as §1

HCT-15 = settings: Homo sapiens, single dose 10 µM, '-' = no inhibition, read-out: % Growth Inhibition
Summary of the method: as §1

SK-MEL-2 = settings: Homo sapiens, single dose 10 µM, '-' = no inhibition, read-out: % Growth Inhibition
Summary of the method: as §1

SF-295 = settings: Homo sapiens, single dose 10 µM, '-' = no inhibition, read-out: % Growth Inhibition
Summary of the method: as §1

HCC-2998 = settings: Homo sapiens, single dose 10 µM, '-' = no inhibition, read-out: % Growth Inhibition
Summary of the method: as §1

MALME-3M = settings: Homo sapiens, single dose 10 µM, '-' = no inhibition, read-out: % Growth Inhibition
Summary of the method: as §1

U251 = settings: Homo sapiens, U-251, single dose 10 µM, '-' = no inhibition, read-out: % Growth Inhibition
Summary of the method: as §1

CCRF-CEM = settings: Homo sapiens, single dose 10 µM, '-' = no inhibition, read-out: % Growth Inhibition
Summary of the method: as §1

BT-549 = settings: Homo sapiens, single dose 10 µM, '-' = no inhibition, read-out: % Growth Inhibition
Summary of the method: as §1

UO-31 = settings: Homo sapiens, single dose 10 µM, '-' = no inhibition, read-out: % Growth Inhibition
Summary of the method: as §1

ACHN 1 = settings: Homo sapiens, single dose 10 µM, '-' = no inhibition, read-out: % Growth Inhibition
Summary of the method: as §1

EKVX = settings: Homo sapiens, single dose 10 µM, '-' = no inhibition, read-out: % Growth Inhibition
Summary of the method: as §1

RXF 393 = settings: Homo sapiens, single dose 10 µM, '-' = no inhibition, read-out: % Growth Inhibition
Summary of the method: as §1

MDA-MB-435 = settings: Homo sapiens, single dose 10 µM, '-' = no inhibition, read-out: % Growth Inhibition
Summary of the method: as §1

A549/ATCC = settings: Homo sapiens, single dose 10 µM, '-' = no inhibition, read-out: % Growth Inhibition
Summary of the method: as §1

SF-268 = settings: Homo sapiens, single dose 10 µM, '-' = no inhibition, read-out: % Growth Inhibition
Summary of the method: as §1

HOP-62 = settings: Homo sapiens, single dose 10 µM, '-' = no inhibition, read-out: % Growth Inhibition
Summary of the method: as §1

SN12C = settings: Homo sapiens, single dose 10 µM, '-' = no inhibition, read-out: % Growth Inhibition
Summary of the method: as §1

NCI/ADR-RES = settings: Homo sapiens, single dose 10 µM, '-' = no inhibition, read-out: % Growth Inhibition
Summary of the method: as §1

OVCAR-3 = settings: Homo sapiens, single dose 10 µM, '-' = no inhibition, read-out: % Growth Inhibition
Summary of the method: as §1

IGROV1 = settings: Homo sapiens, IGROV-1, single dose 10 µM, '-' = no inhibition, read-out: % Growth Inhibition
Summary of the method: as §1

UACC-62 = settings: Homo sapiens, single dose 10 µM, '-' = no inhibition, read-out: % Growth Inhibition
Summary of the method: as §1

UACC-257 = settings: Homo sapiens, single dose 10 µM, '-' = no inhibition, read-out: % Growth Inhibition
Summary of the method: as §1

TK-10 = settings: Homo sapiens, single dose 10 µM, '-' = no inhibition, read-out: % Growth Inhibition
Summary of the method: as §1

OVCAR-5 = settings: Homo sapiens, single dose 10 µM, '-' = no inhibition, read-out: % Growth Inhibition
Summary of the method: as §1

HS 578T = settings: Homo sapiens, single dose 10 µM, '-' = no inhibition, read-out: % Growth Inhibition
Summary of the method: as §1

HT29 = settings: Homo sapiens, HT-29, single dose 10 µM, '-' = no inhibition, read-out: % Growth Inhibition
Summary of the method: as §1

For `CCSc1nc(-c2ccc(Cl)cc2)cc(-c2ccc(OC)c(OC)c2)n1` [Compound 24, 4-(4-Chlorophenyl)-2-(ethylthio)-6-(3,4-dimethoxyphenyl)pyrimidine], the inhibition at 10 µM (SK-OV-3) was < 0%, the inhibition at 10 µM (A498) was 1.95% and the inhibition at 10 µM (SNB-75) was 6.37%. It also gave an inhibition at 10 µM (SK-MEL-5) of 28.9%, an inhibition at 10 µM (RPMI-8226) of 26.4% and an inhibition at 10 µM (786-0) of 11.8%. For the same compound, the inhibition at 10 µM (NCI-H522) was 2.36%, the inhibition at 10 µM (MDA-MB-468) was 11.3% and the inhibition at 10 µM (SK-MEL-28) was 5.5%. For the same compound, the inhibition at 10 µM (HCT-116) was 30%, the inhibition at 10 µM (MCF7) was 18.5% and the inhibition at 10 µM (SW-620) was 20.9%. For the same compound, the inhibition at 10 µM (SNB-19) was 3.01%, the inhibition at 10 µM (SF-539) was 7.9% and the inhibition at 10 µM (CAKI-1) was 27.5%. The inhibition at 10 µM (M14) was 3.7%, the inhibition at 10 µM (NCI-H460) was < 0% and the inhibition at 10 µM (MOLT-4) was 37%. The inhibition at 10 µM (PC-3) was 26.4%, the inhibition at 10 µM (T-47D) was 37.6% and the inhibition at 10 µM (HOP-92) was 1.94%. For the same compound, the inhibition at 10 µM (KM12) was 29.8%, the inhibition at 10 µM (HCT-15) was 30.7% and the inhibition at 10 µM (SK-MEL-2) was 11.9%. For the same compound, the inhibition at 10 µM (SF-295) was 7.88%, the inhibition at 10 µM (HCC-2998) was 4.44% and the inhibition at 10 µM (MALME-3M) was < 0%. For the same compound, the inhibition at 10 µM (U251) was 14.7%, the inhibition at 10 µM (CCRF-CEM) was 19.3% and the inhibition at 10 µM (BT-549) was < 0%. The inhibition at 10 µM (UO-31) was 25.8%, the inhibition at 10 µM (ACHN 1) was 7.24% and the inhibition at 10 µM (EKVX) was 20.4%. It also gave an inhibition at 10 µM (RXF 393) of 23.5%, an inhibition at 10 µM (MDA-MB-435) of 19.7% and an inhibition at 10 µM (A549/ATCC) of 23%. The inhibition at 10 µM (SF-268) was 16.9%, the inhibition at 10 µM (HOP-62) was < 0% and the inhibition at 10 µM (SN12C) was 22.8%. The inhibition at 10 µM (NCI/ADR-RES) was 17.5%, the inhibition at 10 µM (OVCAR-3) was < 0% and the inhibition at 10 µM (IGROV1) was < 0%. For the same compound, the inhibition at 10 µM (UACC-62) was < 0%, the inhibition at 10 µM (UACC-257) was 13.5% and the inhibition at 10 µM (TK-10) was < 0%. For the same compound, the inhibition at 10 µM (OVCAR-5) was 11%, the inhibition at 10 µM (HS 578T) was 20.6% and the inhibition at 10 µM (HT29) was 28.3%.

— PMC11576293, “New series of 4,6-diaryl pyrimidines: facile synthesis and antiproliferative activity as dual EGFR/VEGFR-2 inhibitors” (Frontiers in Chemistry, 2024)
